Assay results: article PMC10975527 (Viruses, 2024)
Read-outs that look alike come from different tables or passages of the source.

Tests used:
in vitro = settings: hamster
WNV = test: Antiviral selectivity panel: WNV; format: cell-based; settings: West Nile virus, Vero 76, in Primates; Vero76 (monkey kidney)
recombinant human PAPD7 = target: T1, recombinant human PAPD7 (Homo sapiens, UniProt Q5XG87); test: PAPD7 ATP depletion assay; format: biochemical; settings: 12.5 nM enzyme, 750 nM ATP, 3 h, mean of 3 experiments; read-out: IC50, PAPD7-mediated incorporation of ATP
T1 construct: made in house
T1 sequence (Q5XG87 226-558): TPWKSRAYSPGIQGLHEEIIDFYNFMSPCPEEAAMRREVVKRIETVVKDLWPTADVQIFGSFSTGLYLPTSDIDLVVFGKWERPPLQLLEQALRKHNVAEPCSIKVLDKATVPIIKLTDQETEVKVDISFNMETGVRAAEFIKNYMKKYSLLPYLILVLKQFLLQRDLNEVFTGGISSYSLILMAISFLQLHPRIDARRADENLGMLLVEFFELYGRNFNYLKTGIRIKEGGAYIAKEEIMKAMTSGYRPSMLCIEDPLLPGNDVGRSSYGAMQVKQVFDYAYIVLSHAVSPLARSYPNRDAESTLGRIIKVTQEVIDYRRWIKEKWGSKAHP

Beagle dogs = test: 13-week repeat-dose toxicity study in dogs; format: in vivo; design: key to Testis: Degeneration/Atrophy, Minimal, incidence / Testis: Degeneration/Atrophy, Mild, incidence / Testis: Degeneration/Atrophy, Moderate, incidence / Epididymis: Cellular debris, Minimal, incidence / Epididymis: Cellular debris, Mild, incidence / Epididymis: Cellularity, decreased; sperm, Minimal, incidence / Epididymis: Cellularity, decreased; sperm, Mild, incidence / Epididymis: Cellularity, decreased; sperm, Marked, incidence: - = no AB-161-related findings
HBV pgRNA and preS/S RNA = test: Kinetics of HBV RNA degradation in HepAD38 cells (Northern blot); format: cell-based, hepatitis B virus; settings: HepAD38, GLS4 + AB-161 (100 nM)
DENV2 = test: Antiviral selectivity panel: DENV2; format: cell-based, dengue virus type 2; settings: Dengue virus, DENV2, BHK-21, in Mesocricetus auratus; BHK21 (hamster kidney)
[1] = mouse, in vivo
Wild-type HBV = test: HBV polymerase variant phenotyping in Huh-7: wild-type; settings: Hepatitis B virus
HBV (AAV-HBV) = test: AAV-HBV mouse model, serum HBsAg; settings: AAV-HBV mice; for mean reduction of serum HBsAg compared to pre-dose baseline: 14 days
[2] = test system: panel of RNA and DNA viruses; test: Antiviral selectivity against a panel of RNA and DNA viruses (summary); format: cell-based
HCV = test: Antiviral selectivity panel: HCV; format: cell-based; settings: Hepatitis C virus; Huh-7 (human liver)
[3] = test system: HBsAg with wildtype HBV PRE; test: HBV PRE variant phenotyping in Huh-7: wild-type PRE plasmid (HBsAg); format: cell-based; settings: Hepatitis B virus, Huh-7, 120 h, read-out: HBsAg EC50
[4] = Cytotoxicity in HepG2-hNTCP cells; format: cell-based; settings: human, HBV-infected HepG2-hNTCP-C4 cells
[5] = test system: HBsAg with SLα deletion mutant (ΔSLα) PRE; test: HBV PRE variant phenotyping in Huh-7: ΔSLα plasmid (HBsAg); format: cell-based; settings: Hepatitis B virus, Huh-7, 120 h, read-out: HBsAg EC50
IAV = test: microbe, parasite or virus in culture; format: cell-based; settings: Influenza A virus, MDBK, in Bos taurus, read-out: EC50 (IAV)
RSV = test: Antiviral selectivity panel: RSV; format: cell-based; settings: human respiratory syncytial virus, HEp-2; HEp2 (human epithelial)
HBV genotypes A–H = test: HBV genotype coverage in HBV transfected Huh-7 cells (HBsAg); settings: Hepatitis B virus
[6] = male dogs, 10 mg/kg/day, end of main study (days 97–100)
[7] = male dogs, 10 mg/kg/day, end of main study, 4 examined
[8] = male dogs, 30 mg/kg/day, end of main study (days 97–100)
[9] = male dogs, 30 mg/kg/day, end of main study, 3 examined
[10] = male dogs, 100 mg/kg/day, end of main study (days 97–100)
[11] = male dogs, 100 mg/kg/day, end of main study, 4 examined
[12] = male dogs, 100 mg/kg/day, end of recovery (Day 120)
[13] = male dogs, 100 mg/kg/day, end of recovery (Day 120), 2 examined

COc1cc(OC(F)F)c2nc3c(n2c1)C[C@@H](C(C)(C)C)c1cc(C(=O)O)c(=O)[nH]c1-3 [AB-161]
CC50 (in vitro): > 30000 nM | EC50 (WNV): > 30000 nM | CC50 (MRC-5 (human lung)): > 30000 nM | IC50 (recombinant human PAPD7): 1100 nM | motor nerve conduction (Beagle dogs; dogs): No differences from baseline or time-matched controls | animals with persisting peroneal sensory NCV delays (Beagle dogs; dogs, 100 mg/kg/day recovery cohort, day 119): 2 of 4 | animals with peroneal sensory NCV delays (Beagle dogs; dogs, 100 mg/kg/day, days 71 to 72): 4 of 12 | food consumption, electrocardiography, neurological examinations, urinalysis (Beagle dogs; dogs, 10, 30, or 100 mg/kg/day): no AB-161-related effects | reproductive safety findings (Beagle dogs; female dogs, 13-week administration, all doses): no reproductive safety findings | Testis: Degeneration/Atrophy, incidence (Beagle dogs; male dogs, 10 mg/kg/day, end of main study (day 97–100), 4 examined): 0 | Testis weight, % of body weight (Beagle dogs; [6]): −9.38 percent difference from the control group means | Testis weight, % of brain weight (Beagle dogs; [6]): −16.13 percent difference from the control group means | Testis weight, absolute value (Beagle dogs; [6]): −18.03 percent difference from the control group means | Epididymis: Cellular debris, Mild, incidence (Beagle dogs; [7]): - | Epididymis: Cellular debris, Minimal, incidence (Beagle dogs; [7]): - | Epididymis: Cellular debris, incidence (Beagle dogs; [7]): 0 | Epididymis: Cellularity, decreased; sperm, Marked, incidence (Beagle dogs; [7]): - | Epididymis: Cellularity, decreased; sperm, Mild, incidence (Beagle dogs; [7]): - | Epididymis: Cellularity, decreased; sperm, Minimal, incidence (Beagle dogs; [7]): - | Epididymis: Cellularity, decreased; sperm, incidence (Beagle dogs; [7]): 0 | Testis: Degeneration/Atrophy, Mild, incidence (Beagle dogs; [7]): - | Testis: Degeneration/Atrophy, Minimal, incidence (Beagle dogs; [7]): - | Testis: Degeneration/Atrophy, Moderate, incidence (Beagle dogs; [7]): - | Testis weight, % of body weight (Beagle dogs; [8]): −21.93 percent difference from the control group means | Testis weight, % of brain weight (Beagle dogs; [8]): −30.73 percent difference from the control group means | Testis weight, absolute value (Beagle dogs; [8]): −34.17 percent difference from the control group means | Epididymis: Cellular debris, Mild, incidence (Beagle dogs; [9]): 2 | Epididymis: Cellular debris, Minimal, incidence (Beagle dogs; [9]): 0 | Epididymis: Cellular debris, incidence (Beagle dogs; [9]): 2 | Epididymis: Cellularity, decreased; sperm, Marked, incidence (Beagle dogs; [9]): 0 | Epididymis: Cellularity, decreased; sperm, Mild, incidence (Beagle dogs; [9]): 2 | Epididymis: Cellularity, decreased; sperm, Minimal, incidence (Beagle dogs; [9]): 0 | Epididymis: Cellularity, decreased; sperm, incidence (Beagle dogs; [9]): 2 | Testis: Degeneration/Atrophy, Mild, incidence (Beagle dogs; [9]): 1 | Testis: Degeneration/Atrophy, Minimal, incidence (Beagle dogs; [9]): 1 | Testis: Degeneration/Atrophy, Moderate, incidence (Beagle dogs; [9]): 0 | Testis: Degeneration/Atrophy, incidence (Beagle dogs; [9]): 2 | Testis weight, % of body weight (Beagle dogs; [10]): −12.18 percent difference from the control group means | Testis weight, % of brain weight (Beagle dogs; [10]): −16.10 percent difference from the control group means | Testis weight, absolute value (Beagle dogs; [10]): −20.62 percent difference from the control group means | Epididymis: Cellular debris, Mild, incidence (Beagle dogs; [11]): 2 | Epididymis: Cellular debris, Minimal, incidence (Beagle dogs; [11]): 2 | Epididymis: Cellular debris, incidence (Beagle dogs; [11]): 4 | Epididymis: Cellularity, decreased; sperm, Marked, incidence (Beagle dogs; [11]): 1 | Epididymis: Cellularity, decreased; sperm, Mild, incidence (Beagle dogs; [11]): 2 | Epididymis: Cellularity, decreased; sperm, Minimal, incidence (Beagle dogs; [11]): 1 | Epididymis: Cellularity, decreased; sperm, incidence (Beagle dogs; [11]): 4 | Testis: Degeneration/Atrophy, Mild, incidence (Beagle dogs; [11]): 1 | Testis: Degeneration/Atrophy, Minimal, incidence (Beagle dogs; [11]): 2 | Testis: Degeneration/Atrophy, Moderate, incidence (Beagle dogs; [11]): 1 | Testis: Degeneration/Atrophy, incidence (Beagle dogs; [11]): 4 | Testis weight, % of body weight (Beagle dogs; [12]): −37.79 percent difference from the control group means | Testis weight, % of brain weight (Beagle dogs; [12]): −43.49 percent difference from the control group means | Testis weight, absolute value (Beagle dogs; [12]): −42.84 percent difference from the control group means | Epididymis: Cellular debris, Mild, incidence (Beagle dogs; [13]): (2) 2 2 2 2 | Epididymis: Cellular debris, incidence (Beagle dogs; [13]): (2) 2 2 2 2 | Epididymis: Cellularity, decreased; sperm, Moderate, incidence (Beagle dogs; [13]): (2) 2 2 2 2 | Epididymis: Cellularity, decreased; sperm, incidence (Beagle dogs; [13]): (2) 2 2 2 2 | Testis: Degeneration/Atrophy, Moderate, incidence (Beagle dogs; [13]): (2) 2 2 | Testis: Degeneration/Atrophy, incidence (Beagle dogs; [13]): (2) 2 2 | testis microscopic finding (Beagle dogs; male dogs, 30 and 100 mg/kg/day at terminal euthanasia, persisted at end of recovery at 100 mg/kg/day): degeneration/atrophy in the testis was noted | levels of pgRNA and preS/S RNA (HBV pgRNA and preS/S RNA; 8 h and 16 h post-treatment): substantially reduced | migration of pgRNA and preS/S RNA (shortening of the viral transcripts) (HBV pgRNA and preS/S RNA; starting at 2 h post-treatment): faster migration | EC50 (DENV2): > 30000 nM | liver and kidney function markers (ALT, creatinine) [1]: no significant changes | EC50 (Wild-type HBV; Huh-7, read-out: EC50 (HBsAg)): 1.9 to 4.9 nM | EC50 (Wild-type HBV; Huh-7, read-out: HBsAg, EC50): 4.9 nM | mean reduction of serum HBsAg compared to pre-dose baseline (HBV (AAV-HBV); 0.3 mg/kg oral QD): 0.13 log10 | mean reduction of serum HBsAg compared to pre-dose baseline (HBV (AAV-HBV); 1 mg/kg oral QD): 0.34 log10 | mean reduction of serum HBsAg compared to pre-dose baseline (HBV (AAV-HBV); 10 mg/kg oral QD): 0.71 log10 | mean reduction of serum HBsAg compared to pre-dose baseline (HBV (AAV-HBV); 30 mg/kg oral QD): 0.94 log10 | earliest time at which inhibition of serum HBsAg was observed (HBV (AAV-HBV); after initiation of dosing): 4 days | mean maximal reduction of serum HBsAg compared to pre-dose baseline (HBV (AAV-HBV); oral QD 14 days, dose range 0.3 to 30 mg/kg): 0.94 ± 0.56 log10 | selectivity for HBV ([2]; HBV vs panel of RNA and DNA viruses): > 10,000 fold | activity against a panel of RNA and DNA viruses ([2]; all ten viruses, up to the highest concentration tested at 30 μM): inactive | EC50 (HCV): > 30000 nM | EC50 [3]: 2.5 nM | CC50 (Huh-7 cells; HBV transfected Huh-7, genotypes A–H): > 50000 nM | CC50 (Huh-7 cells; Huh-7, HBV genotype A): > 50000 nM | CC50 (Huh-7 cells; Huh-7, HBV genotype C): > 50000 nM | CC50 (Huh-7 cells; Huh-7, HBV genotype D): > 50000 nM | CC50 (Huh-7 cells; Huh-7, HBV genotype E): > 50000 nM | CC50 (Huh-7 cells; Huh-7, HBV genotype F): > 50000 nM | CC50 (Huh-7 cells; Huh-7, HBV genotype H-1): > 50000 nM | CC50 (Huh-7 cells; Huh-7, HBV genotype H-2): > 50000 nM | CC50 [4]: > 10000 nM | EC50 [5]: > 100 nM | EC50 (IAV): > 30000 nM | EC50 (RSV): > 30000 nM | EC50 (HBV genotypes A–H; Huh-7, read-out: HBsAg EC50, HBV transfected Huh-7, range over genotypes A–H): 2.1 to 4.5 nM | EC50 (HBV genotypes A–H; Huh-7, read-out: HBsAg EC50, Huh-7, HBV genotype A): 3 ± 0.8 nM | EC50 (HBV genotypes A–H; Huh-7, read-out: HBsAg EC50, Huh-7, HBV genotype B): 2.6 ± 1.4 nM | EC50 (HBV genotypes A–H; Huh-7, read-out: HBsAg EC50, Huh-7, HBV genotype C): 2.3 ± 0.6 nM | EC50 (HBV genotypes A–H; Huh-7, read-out: HBsAg EC50, Huh-7, HBV genotype D): 4.5 ± 2.8 nM | EC50 (HBV genotypes A–H; Huh-7, read-out: HBsAg EC50, Huh-7, HBV genotype E): 2.5 ± 0.9 nM | EC50 (HBV genotypes A–H; Huh-7, read-out: HBsAg EC50, Huh-7, HBV genotype F): 3.3 ± 2.6 nM | EC50 (HBV genotypes A–H; Huh-7, read-out: HBsAg EC50, Huh-7, HBV genotype H-1): 2.4 ± 0.5 nM | EC50 (HBV genotypes A–H; Huh-7, read-out: HBsAg EC50, Huh-7, HBV genotype H-2): 2.1 ± 0.9 nM
